Results reported in patent publication US5008252A, “Process for inhibiting herpes simplex virus-specified thymidine kinase” (The University of North Carolina at Chapel Hill, priority 1987, dated 1991).
Values joined by “and” are separate entries in the source; they are usually repeats but may differ in a detail not shown here. Identical values can stand only once. “Also recorded” adds a separate entry of the source.

Assays:
[1] = biological target: HSV-1 B3 dThd kinase (BVDU resistant variant) (Human alphaherpesvirus 1 strain SC16, UniProt P06479); test: dThd kinase assay in vitro, enzyme extracts; assay type: biochemical, HSV-1 (strain B3); conditions: enzyme extracts of infected HeLa BU cells, 100 μM dThd
Experimental: Virus stocks. The viruses used were HSV-1 (strains KOS, SC16, B3 and Tr7) and HSV-2(strain 333). dThd kinase mutants of HSV (SC16), B3 and Tr7, were isolated in the presence of (E)-5-(2-bromovinyl)-2'-deoxyuridine (BVDU) at 10 μg/ml and ACV at 1 μg/ml, respectively (Darby, G., Field, H.J. & Salisbury, S. A. (1982) Nature (London) 289:81-83; Field, H.J & Neden J. (1982) Antiviral Res. 2:243254).
Enzyme purification, enzyme assays, IC50 and Ki determinations. The cellular cytosolic dThd kinase used to determine the Ki values was isolated from KB6B cells. The HSV-1 and HSV-2dThd kinases were extracted from dThd kinase-deficient HeLa BU cells infected with HSV-1 (strain KOS) and HSV-2(strain 333), respectively. All of the dThd kinases were purified using affinity column chromatography procedures described by Lee, L. S. and Cheng, Y.-C. (J. Biol. Chem. 251:2600-2604 (1976)). The dThd kinase assay used was the same as that described by Cheng, Y.-C. & Ostrander, M. (J. Biol. Chem. 251:2605-2610 (1976)). Incubations were conducted at 37° C. for 60 min and the Ki and 50% […] concentration (IC50) values were determined as described by Cheng, Y.-C. and Prusoff, W. H. (Biochem. Pharmacol. 22:3099-3108 (1976)).

[2] = tested on: dNTP pools of HSV-1-infected HeLa BU cells; test: dNTP pool assay; assay type: cell-based
Source text: (§1) dNTP pool assay. dNTP pool measurements were done as described by Williams, M. W., Chang, C. H. and Cheng, Y.-C. (J. Biomed. Biophys. Meth. 1:153-1 62 (1979)). 5'-Et-dThd alone had no effect on the dNTP pool assay.

[3] = tested on: dTTP pool of HSV-1-infected HeLa S3 cells; test: dNTP pool assay; assay type: cell-based; conditions: 100 μM, 12 h post infection
Source text: as §1

[4] = tested on: dTTP pools of HSV-1 (strain MDK)-infected HeLa BU cells; test: dNTP pool assay; assay type: cell-based; conditions: 100 μM
Source text: as §1

[5] = tested on: mammalian host DNA synthesis; test: Host DNA synthesis by 32PO4 incorporation; assay type: cell-based; conditions: 100 μM
mammalian cell growth = test: Cell growth inhibition; assay type: cell-based
Experimental: Cell and virus growth inhibition. Cell growth inhibition and the virus yield assay were performed in accordance with the protocol described by Cheng, Y.-C., Grill, S.P., Ruth, J. and Bergstrom, D. E. (Antimicrob. Agents Chemother. 18:957-961 (1980)) with the exceptions that all studies were done using 5% dialyzed fetal bovine serum; the multiplicity of infection was 3 PFU/cell and Vero cells were used instead of CV-1 cells for titration in the virus yield assays.

Chain of HSV-1 B3 dThd kinase (BVDU resistant variant) (P06479 whole entry, looked up, stated change not applied): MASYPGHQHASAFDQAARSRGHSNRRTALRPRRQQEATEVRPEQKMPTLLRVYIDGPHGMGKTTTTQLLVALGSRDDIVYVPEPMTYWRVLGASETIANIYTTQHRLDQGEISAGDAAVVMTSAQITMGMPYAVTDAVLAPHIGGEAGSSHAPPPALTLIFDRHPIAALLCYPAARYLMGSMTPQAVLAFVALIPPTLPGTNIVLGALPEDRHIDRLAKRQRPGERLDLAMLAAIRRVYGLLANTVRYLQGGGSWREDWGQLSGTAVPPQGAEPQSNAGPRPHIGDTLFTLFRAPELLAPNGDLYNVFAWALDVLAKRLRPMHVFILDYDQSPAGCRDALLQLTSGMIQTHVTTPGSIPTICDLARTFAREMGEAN

## 5'-ethynylthymidine [5'-Et-dThd]
[1]
  IC50: < 10 µM and 7 µM
[2]; 100 μM
  effect on dTTP pool of HSV-infected mammalian cells: significantly decreases
[2]; 100 μM, HSV-1-infected HeLa BU cells, 12 h post infection
  reduction of dTTP pool vs untreated infected control: 95%
[2]; 9 h HSV-1 (KOS)-infected HeLa BU cells
  effect on dATP, dCTP and dGTP pools: not significantly affected; also recorded: no significant effect
[3]
  reduction of dTTP pool vs untreated infected control: 80%
[4]
  inhibition of dTTP pools: 45%
[5]
  effect on mammalian host DNA synthesis: no effect
Mammalian cell growth
  inhibition of mammalian cell growth: nor does the analog inhibit mammalian cell growth
